# According to paper PMC3822589 (Journal of Cellular and Molecular Medicine, 2013):
# “Also recorded” adds a separate entry of the source. Where two headings read alike, the source gives them in different places.
# Columns and labels:
# [1] = test system: Phospho-STAT5 (P-STAT5) levels in HEL cells (Jak2V617F); test: Western blot of phospho-STAT5 in HEL cells; format: cell-based, human; conditions: for effect on phosphorylation of STAT5 (Western blot): 0.5, 1 or 5 μM, 3 hrs; for IC50 values, WB (P-STAT5) / IC50: mean ± SD
# HEL cells [2] = test: Cell proliferation assay; format: cell-based, human; conditions: for effect on proliferation of HEL cells: 0.3 or 1 μM; for IC50: read-out: IC50 values, Proliferation assay
# [3] = test system: P-STAT5 in UKE-1 cells (Jak2V617F); test: Western blot of phospho-STAT5 in UKE-1 cells; format: cell-based; conditions: 2.5 μM, 3 hrs
# [4] = test system: P-STAT5 in BA/F3-EpoR-Jak2V617F cells; test: Western blot of phospho-STAT5 in BA/F3-EpoR-Jak2V617F cells; format: cell-based, murine; conditions: 2.5 μM, 3 hrs
# [5] = test system: Jak2V617F phosphorylation (P-Jak2) in HEL cells; test: Western blot of phospho-Jak2 in HEL cells; format: cell-based, human; conditions: 0.5, 1 or 5 μM, 3 hrs
# [6] = test system: Jak2V617F in γ2A-FRT-TI-Jak2V617F/STAT3-YFP cells; test: STAT3-YFP translocation assay; format: cell-based; conditions: read-out: IC50 values, STAT3-YFP translocation assay
# HEL cells [7] = test: Cell cycle analysis; format: cell-based, human; conditions: 500 nM CEP701, VX680, TG101209 or 100 nM AT9283
# [8] = test system: phosphorylation of histone H3 (target of Aurora kinase B) in HEL cells; test: Quantitative Western blot of phospho-histone H3 in HEL cells; format: cell-based, human; conditions: HEL cells blocked with Nocodazole; 0.25, 0.5 or 1 μM; 3 hrs
# HEL cells [9] = test: Cell size determination; format: cell-based, human; conditions: 600 nM CEP701, TG101209, VX680 or 100 nM AT9283; 24, 48 or 72 hrs
# [10] = test system: CD34+ cells of Jak2V617F-positive MPN patients; test: Colony forming cell; format: cell-based, human; conditions: single inhibitor; 12–16 days of culture
# [11] = test system: Jak2V617F in HEK-V617F-STAT-Rep. cells; test: pSTAT-ZsGreen reporter gene assay; format: cell-based; conditions: for IC50: read-out: IC50 values, STAT-reporter gene assay
# [12] = test system: 2C4, HCT-116 and K-562 cells; test: Nuclei size in cell lines not expressing Jak2V617F; format: cell-based; conditions: 500 nM; 48 hrs
# [13] = test system: phosphorylation of histone H3 in UKE-1 cells; test: Quantitative Western blot of phospho-histone H3 in UKE-1 cells; format: cell-based; conditions: UKE-1 cells blocked with Nocodazole; 0.25, 0.5 or 1 μM; 3 hrs
# [14] = test system: phosphorylation of histone H3 in BA/F3-EpoR-Jak2V617F cells; test: Quantitative Western blot of phospho-histone H3 in BA/F3-EpoR-Jak2V617F cells; format: cell-based, murine; conditions: BA/F3-EpoR-Jak2V617F cells blocked with Nocodazole; 0.25, 0.5 or 1 μM; 3 hrs
# [15] = test system: γ2A-FRT-TI-Jak2V617F/STAT3-YFP cells; test: Nuclei size by confocal imaging and Cell Profiler; format: cell-based; conditions: 24 hrs; Cell Profiler
# [16] = Homo sapiens, HEL, read-out: IC50 values, WB (P-STAT5), HEL cells
# [17] = read-out: IC50 values, WB (P-STAT5), HEL cells
# [18] = HEK-V617F-STAT-Rep. cells, 24 hrs, mean ± SD
# [19] = γ2A-FRT-TI-Jak2V617F/STAT3-YFP cells, mean ± SD
Compound,effect on phosphorylation of STAT5 (Western blot) ([1]; HEL cells),"IC50 values, WB (P-STAT5) ([1]; HEL cells)",effect on proliferation of HEL cells (HEL cells [2]; 72 hrs),effect on phosphorylation of STAT5 (Western blot) [3],effect on phosphorylation of STAT5 (Western blot) [4],effect on phosphorylation of Jak2 [5],effect on erythroid and myeloid colony growth [10],"IC50 [1, 17] [nM]",other results
N#C/C(=C/c1ccc(O)c(O)c1)C(=O)NCc1ccccc1 [AG490],did not inhibit the phosphorylation of STAT5,No inhibition,neither affected cell growth,did not inhibit STAT5 phosphorylation,did not inhibit STAT5 phosphorylation,not observed,,,
O=C(Nc1c[nH]nc1-c1nc2ccc(CN3CCOCC3)cc2[nH]1)NC1CC1 [AT9283],strongly reduced phosphorylation of STAT5,,,efficiently decreased,efficiently decreased,increased phosphorylation of Jak2,,,IC50 [6]: 74 ± 38 nM; effect on cell cycle profile (HEL cells [7]): emergence of an 8n peak; effect on histone H3 phosphorylation [8]: Reduction in histone H3 phosphorylation; effect on HEL cell size (HEL cells [9]): increased in size
CCN(CCCOc1ccc2c(Nc3cc(CC(=O)Nc4cccc(F)c4)n[nH]3)ncnc2c1)CCOP(=O)(O)O [AZD1152],,,,,,,same behaviour,,
C[C@]12O[C@H](C[C@]1(O)CO)n1c3ccccc3c3c4c(c5c6ccccc6n2c5c31)CNC4=O [CEP701],strongly reduced phosphorylation of STAT5,,reduced proliferation of HEL cells very effectively,efficiently decreased,efficiently decreased,increased phosphorylation of Jak2,erythroid and myeloid colonies were equally well suppressed,97 ± 39,"IC50 [1, 16]: ~100 nM; IC50 ([11]; 24 h): 111 ± 22 nM; IC50 [6]: 45 ± 15 nM; IC50 (HEL cells [2]; Homo sapiens, HEL, 72 h): 81 ± 20 nM; increase in nuclei size in cell lines not expressing Jak2V617F [12]: this effect was also clearly visible; effect on cell cycle profile (HEL cells [7]): emergence of an 8n peak; effect on histone H3 phosphorylation [8]: Reduction in histone H3 phosphorylation; effect on histone H3 phosphorylation [13]: decline of histone H3 phosphorylation; effect on histone H3 phosphorylation [14]: decline of histone H3 phosphorylation; effect on HEL cell size (HEL cells [9]): increased in size"
CO[C@@H](C(=O)N1Cc2n[nH]c(NC(=O)c3ccc(N4CCN(C)CC4)cc3)c2C1)c1ccccc1 [Danusertib],,,,,,,same behaviour,,
CC(C)(C)c1nc2c3cc[nH]c(=O)c3c3cc(F)ccc3c2[nH]1 [JI1],strongly reduced phosphorylation of STAT5,,reduced proliferation of HEL cells very effectively,efficiently decreased,efficiently decreased,increased phosphorylation of Jak2,,133 ± 62,"IC50 [11, 18]: 291 ± 40 nM; IC50 [6, 19]: 197 ± 73 nM; IC50 (HEL cells [2]; HEL cells, 72 hrs, mean ± SD): 506 ± 18 nM; concentration at which nuclei size increases [15]: did not have this effect"
Nc1nc(Nc2ccc(S(N)(=O)=O)cc2)nn1C(=O)c1c(F)cccc1F [JNJ7706621],did not inhibit the phosphorylation of STAT5,No inhibition,neither affected cell growth,,,not observed,,,
C/C(O)=C(\C#N)C(=O)Nc1cc(Br)ccc1Br [LFM-A13],did not inhibit the phosphorylation of STAT5,No inhibition,neither affected cell growth,,,not observed,,,
O=C(Nc1cccc(Cl)c1)Nc1ncc(CCNc2ncnc3ccsc23)s1 [SNS314],,,,,,,same behaviour,,
CCN(CC)CCNC(=O)c1c(C)[nH]c(/C=C2\C(=O)Nc3ccc(F)cc32)c1C [Sunitinib],did not inhibit the phosphorylation of STAT5,No inhibition,moderate effect,did not inhibit STAT5 phosphorylation,did not inhibit STAT5 phosphorylation,not observed,,,
Cc1cnc(Nc2ccc(N3CCN(C)CC3)cc2)nc1Nc1cccc(S(=O)(=O)NC(C)(C)C)c1 [TG101209],strongly reduced phosphorylation of STAT5,,reduced proliferation of HEL cells very effectively,efficiently decreased,efficiently decreased,increased phosphorylation of Jak2,,92 ± 18,"IC50 [11, 18]: 156 ± 10 nM; IC50 [6, 19]: 125 ± 45 nM; IC50 (HEL cells [2]; HEL cells, 72 hrs, mean ± SD): 243 ± 41 nM; concentration at which nuclei size increases [15]: did not show this effect; also recorded: did not have this effect; effect on cell cycle profile (HEL cells [7]): reduction in the G2/M peak intensity; effect on histone H3 phosphorylation [8]: only very little effect; effect on HEL cell size (HEL cells [9]): not observed"
Cc1cnc(Nc2ccc(OCCN3CCCC3)cc2)nc1Nc1cccc(S(=O)(=O)NC(C)(C)C)c1 [TG101348],showed the same effects but were less efficient,,showed the same effects but were less efficient,efficiently decreased,efficiently decreased,increased phosphorylation of Jak2,,636 ± 203,"IC50 [1, 16]: ~600 nM; IC50 ([11]; 24 h): 850 ± 101 nM; IC50 [6]: 385 ± 61 nM; IC50 (HEL cells [2]; Homo sapiens, HEL, 72 h): 725 ± 85 nM; concentration at which nuclei size increases [15]: did not have this effect"
C[C@H](NC(=O)/C(C#N)=C/c1cccc(Br)n1)c1ccccc1 [WP1066],did not inhibit the phosphorylation of STAT5,No inhibition,moderate effect,did not inhibit STAT5 phosphorylation,did not inhibit STAT5 phosphorylation,not observed,,,"IC50 values, STAT-reporter gene assay [11, 18]: No inhibition"
